Measured values reported in US10556898B2, “Indazolyl-1,2,4-thiadiazolamines and related compounds for inhibition of Rho-associated protein kinase and the treatment of disease” (Lycera Corporation, priority 2016, dated 2020).
Where two headings read alike, the source gives them in different places.

Columns and labels:
[1] = molecular target: T1, GST-tagged human ROCK1 catalytic domain 1-477 (Homo sapiens, UniProt Q13464); experiment: Isolated Enzyme Assay, ROCK1 (LANCE Ultra ULight-CREBtide FRET); type: biochemical; details: 30 μM highest concentration tested, read-out: Results from Isolated Enzyme Assay IC50 (μM) ROCK1
T1 construct: human ROCK1 catalytic domain 1-477 from Carna Biosciences (cat #01-109); purchased Carna Biosciences 01-109; host or cells: baculovirus expression system
T1 sequence (Q13464 1-477): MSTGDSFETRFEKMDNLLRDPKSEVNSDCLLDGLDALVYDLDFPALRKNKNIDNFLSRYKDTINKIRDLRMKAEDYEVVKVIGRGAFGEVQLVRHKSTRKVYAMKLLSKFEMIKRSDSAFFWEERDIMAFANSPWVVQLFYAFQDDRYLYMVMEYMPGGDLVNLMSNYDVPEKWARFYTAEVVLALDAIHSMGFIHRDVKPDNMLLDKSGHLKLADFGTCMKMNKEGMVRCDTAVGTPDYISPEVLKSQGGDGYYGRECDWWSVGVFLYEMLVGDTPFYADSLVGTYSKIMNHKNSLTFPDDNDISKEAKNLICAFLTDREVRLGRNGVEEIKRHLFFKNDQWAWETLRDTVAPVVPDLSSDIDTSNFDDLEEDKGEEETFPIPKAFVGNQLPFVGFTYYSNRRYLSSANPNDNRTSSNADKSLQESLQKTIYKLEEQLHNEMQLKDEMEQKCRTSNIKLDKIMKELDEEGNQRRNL
Experimental: (§1) Exemplary compounds were tested for ability to inhibit Rho-associated protein kinase isoform 1 (ROCK1) and Rho-associated protein kinase isoform 2 (ROCK2). Assay procedures and results are described below.
(§2) Part I—Procedure for Determining ROCK Inhibition Ability of Test Compounds Using an Isolated Enzyme Assay
(§3) Protein constructs were purified from a baculovirus expression system. The peptide substrate was fluorescent LANCE® Ultra ULight-CREBtide: […] (PerkinElmer, # TRF0107-D). Kinase reactions were carried out in a 10 μL volume in 384-well plates: 50 nM ULight-CREBtide substrate, 2 nM constitutively active ROCK1 or ROCK2 kinase, and test compound in DMSO (or DMSO only for controls) were diluted into assay buffer containing 50 mM Tris-HCl (pH=7.5), 10 mM MgCl2, 1 mM EGTA, 0.01% Tween-20, and 2 mM DTT such that the final concentration of DMSO was 0.5%. After a 90 minute incubation at room temperature on a shaker table, the kinase reaction was stopped by addition of 10 mM EDTA, and phosphorylation of the substrate was detected by adding 1 nM LANCE® Ultra Europium-anti-phospho-CREB (ser133) antibody (PerkinElmer, # TRF0200-D) and incubating for 60 minutes on a shaker at room temperature. The fluorescence resonance energy transfer (FRET) signals were read and analyzed on an Envision™ 2103 Multilabel Reader (Perkin Elmer). The concentration of test compound required to inhibit substrate phosphorylation by 50% (the IC50) was calculated by non-linear regression using GraphPad PRIZM.

[2] = molecular target: T2, GST-tagged human ROCK2 catalytic domain 1-553 (Homo sapiens, UniProt O75116); experiment: Isolated Enzyme Assay, ROCK2 (LANCE Ultra ULight-CREBtide FRET); type: biochemical; details: 30 μM highest concentration tested, read-out: Results from Isolated Enzyme Assay IC50 (μM) ROCK2
T2 construct: GST-tagged human ROCK2 catalytic domain 1-553 from Carna Biosciences (Cat #01-110); purchased Carna Biosciences 01-110; host or cells: baculovirus expression system
T2 sequence (O75116 1-553): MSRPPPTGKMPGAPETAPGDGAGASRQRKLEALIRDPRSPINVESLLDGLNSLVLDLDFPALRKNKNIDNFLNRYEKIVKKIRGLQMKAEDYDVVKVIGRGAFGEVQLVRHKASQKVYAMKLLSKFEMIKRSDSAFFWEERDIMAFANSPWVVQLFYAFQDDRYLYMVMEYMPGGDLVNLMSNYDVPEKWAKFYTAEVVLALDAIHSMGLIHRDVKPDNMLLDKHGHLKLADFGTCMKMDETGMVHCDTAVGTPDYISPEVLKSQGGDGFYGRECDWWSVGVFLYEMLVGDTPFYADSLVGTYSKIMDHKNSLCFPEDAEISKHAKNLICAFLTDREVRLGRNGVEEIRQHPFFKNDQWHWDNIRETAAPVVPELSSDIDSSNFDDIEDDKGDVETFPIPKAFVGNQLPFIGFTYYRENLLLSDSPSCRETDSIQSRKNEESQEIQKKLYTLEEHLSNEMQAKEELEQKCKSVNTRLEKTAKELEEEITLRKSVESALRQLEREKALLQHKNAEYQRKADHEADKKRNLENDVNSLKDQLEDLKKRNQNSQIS
Experimental: as §1, §2, §3

[3] = molecular target: T3, ROCK2 (Homo sapiens, UniProt O75116); experiment: Cell-Based Assay, ROCK2 (HAP1 knockout cells, phospho-MYPT1 Thr853 ELISA); details: read-out: Results from Cell-Based Assay IC50 (μM) ROCK2
T3 construct: endogenous in cells; host or cells: HAP1 knockout cells
T3 sequence (O75116 whole entry): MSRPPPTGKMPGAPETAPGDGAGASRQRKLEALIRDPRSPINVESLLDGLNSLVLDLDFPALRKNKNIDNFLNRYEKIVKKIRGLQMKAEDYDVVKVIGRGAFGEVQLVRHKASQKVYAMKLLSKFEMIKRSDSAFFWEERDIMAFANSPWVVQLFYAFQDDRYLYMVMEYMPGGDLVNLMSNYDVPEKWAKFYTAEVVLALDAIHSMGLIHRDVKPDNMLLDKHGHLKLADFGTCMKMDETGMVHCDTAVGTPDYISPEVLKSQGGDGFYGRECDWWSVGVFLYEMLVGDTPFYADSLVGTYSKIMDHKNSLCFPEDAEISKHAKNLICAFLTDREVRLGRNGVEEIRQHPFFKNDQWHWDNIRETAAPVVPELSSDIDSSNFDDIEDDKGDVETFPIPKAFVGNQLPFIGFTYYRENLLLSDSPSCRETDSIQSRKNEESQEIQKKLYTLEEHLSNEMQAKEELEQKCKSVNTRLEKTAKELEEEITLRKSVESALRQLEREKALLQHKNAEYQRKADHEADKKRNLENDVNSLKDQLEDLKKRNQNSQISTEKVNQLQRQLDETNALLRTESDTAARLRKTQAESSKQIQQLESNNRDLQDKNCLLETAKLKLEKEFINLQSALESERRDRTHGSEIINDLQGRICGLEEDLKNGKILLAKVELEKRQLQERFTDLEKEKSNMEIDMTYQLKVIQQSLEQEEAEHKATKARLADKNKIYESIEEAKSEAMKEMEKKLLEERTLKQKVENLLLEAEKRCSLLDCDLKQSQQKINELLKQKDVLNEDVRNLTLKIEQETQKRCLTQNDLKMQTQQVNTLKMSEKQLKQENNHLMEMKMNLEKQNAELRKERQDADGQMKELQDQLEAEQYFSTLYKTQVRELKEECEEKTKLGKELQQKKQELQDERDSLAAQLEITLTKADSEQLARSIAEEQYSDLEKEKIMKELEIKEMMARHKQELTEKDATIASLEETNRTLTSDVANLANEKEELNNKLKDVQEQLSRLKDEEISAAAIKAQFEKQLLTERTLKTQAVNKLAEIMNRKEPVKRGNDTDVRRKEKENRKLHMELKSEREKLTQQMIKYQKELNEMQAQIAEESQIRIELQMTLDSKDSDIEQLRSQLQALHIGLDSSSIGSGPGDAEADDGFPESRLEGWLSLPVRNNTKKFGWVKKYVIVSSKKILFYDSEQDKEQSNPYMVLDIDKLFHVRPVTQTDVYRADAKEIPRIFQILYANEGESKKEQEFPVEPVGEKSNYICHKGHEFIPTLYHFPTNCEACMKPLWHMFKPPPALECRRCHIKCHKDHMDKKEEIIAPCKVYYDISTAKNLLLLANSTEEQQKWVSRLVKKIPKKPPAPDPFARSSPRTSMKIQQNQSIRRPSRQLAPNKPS
Experimental: Part II—Procedure for Determining ROCK Inhibition Ability of Test Compounds Using a Cell-Base Assay
The Cell-Based Assay for determining ROCK inhibition ability of test compounds utilized a genetically modified HAP1 cell line engineered to eliminate expression of either ROCK1 or ROCK2. In the procedure, HAP1 knockout cells are grown in Iscove's Modified Dulbecco's Medium that is additionally supplemented with 10% fetal bovine and 1x antibiotic-antimycotic mixture. Cells are plated in 96 well tissue culture plates at 1×10^5 cells/well (100 μL, of cells at 1×10^6/mL). Test compounds are solubilized in DMSO and diluted into the same media used to grow the cells. A 100 μL, aliquot of each compound dilution in media is added to each well containing the HAP1 cells and incubated at 37° C. for 30 minutes. Following compound incubation, the cells are pelleted by centrifugation at 1800 rpm for 5 minutes at 4° C. Media is removed from the cell pellet and the cells lysed and de-salted. An 80 μL, aliquot of each cell lysate is added to a single well of a 96-well high binding ELISA plate which has been pre-coated with a MYPT1 capture antibody and incubated at 4° C. overnight. The following day the ELISA plate is washed 4× with 0.05% Tween-20 in PBS. After washing, an anti-phospho-MYPT1 (Thr853) antibody is added and allowed to bind for 1 hour at room temperature. The wash step is repeated, and then an anti-rabbit HRP detection antibody is added and allowed to incubate at room temperature for 1 hour. The wash step is then repeated and 100 μL/well 1-Step™ Ultra TMB substrate is added to the ELISA plate and allowed to develop for approximately 5 minutes. The reaction is stopped by addition of H2SO4. Absorbance is read at 450 OD. Data is analyzed using GraphPad Prism software to calculate the 50% inhibitory concentration of test compound (IC50).

[4] = phospho-MYPT1, 30 μM highest concentration tested

IC50 ([1]; isolated enzyme assay) [µM]	IC50 ([2]; isolated enzyme assay) [µM]	IC50 ([3]; numeric bound) [µM]	IC50 ([1]; isolated enzyme) [µM]	IC50 ([2]; isolated enzyme) [µM]	IC50 [3, 4] [µM]	IC50 ([3]; class symbols) [µM]	SMILES
1 to 15	< 1	> 10	–	–	–	–	Cc1ncc(-c2nsc(Nc3ccc4[nH]ncc4c3Cl)n2)cc1NC(=O)c1ccnn1C [IV-69]
> 30	< 1	> 10	–	–	–	–	COc1ncc(C(=O)Nc2cc(-c3nsc(Nc4ccc5[nH]ncc5c4Cl)n3)ccn2)cn1 [IV-27]
–	–	–	< 1	< 1	< 1	–	Cn1cncc1C(=O)Nc1cccc(-c2nsc(Nc3ccc4[nH]ncc4c3Cl)n2)c1 [Compound A-23]
> 30	< 1	> 10	–	–	–	–	O=C(Nc1cc(-c2nsc(Nc3ccc4[nH]ncc4c3Cl)n2)ccn1)c1cnco1 [IV-28]
> 30	> 30	–	–	–	–	1 to 15	COc1cccc(C(=O)Nc2cc(C)nc(-c3nsc(Nc4ccc5[nH]ncc5c4Cl)n3)c2)c1 [IV-44]
< 1	< 1	–	–	–	–	1 to 15	Cn1ccnc1-c1cccc(-c2nsc(Nc3ccc4[nH]ncc4c3Cl)n2)c1 [IV-88]
< 1	< 1	> 10	–	–	–	–	Cn1nccc1C(=O)Nc1cccc(-c2nsc(Nc3ccc4[nH]ncc4c3C#N)n2)c1 [IV-33]
–	–	–	< 1	< 1	< 1	–	Cn1cc(CC(=O)Nc2cccc(-c3nsc(Nc4ccc5[nH]ncc5c4Cl)n3)c2)cn1 [Compound A-20]
< 1	< 1	> 10	–	–	–	–	Cc1cc(NC(=O)c2cnco2)cc(-c2nsc(Nc3ccc4[nH]ncc4c3Cl)n2)n1 [IV-25]
< 1	< 1	> 10	–	–	–	–	O=C(Nc1cccc(-c2nsc(Nc3ccc4[nH]ncc4c3Cl)n2)c1)c1nc(O)co1 [IV-79]
–	–	–	< 1	< 1	< 1	–	O=C(Nc1cccc(-c2nsc(Nc3ccc4[nH]ncc4c3Cl)n2)c1)c1cocn1 [Compound A-21]
–	–	–	< 1	< 1	< 1	–	Cc1coc(-c2cccc(-c3nsc(Nc4ccc5[nH]ncc5c4Cl)n3)c2)n1 [Compound A-10]
> 30	> 30	–	–	–	–	1 to 15	O=C(Nc1cc(-c2nsc(Nc3ccc4[nH]ncc4c3Cl)n2)ccn1)c1ccccc1F [IV-60]
–	–	–	< 1	< 1	< 1	–	O=C(Nc1cc(-c2nsc(Nc3ccc4[nH]ncc4c3Cl)n2)ccn1)N1CCOCC1 [Compound A-19]
< 1	< 1	–	–	–	–	1 to 15	CC1(C)CN(c2cccc(-c3nsc(Nc4ccc5[nH]ncc5c4C#N)n3)c2)C(=O)O1 [IV-34]
–	–	–	< 1	< 1	< 1	–	O=C(Nc1cccc(-c2nsc(Nc3ccc4[nH]ncc4c3Cl)n2)c1)c1cnc[nH]1 [Compound A-14]
–	–	–	< 1	< 1	< 1	–	O=C(Nc1cccc(-c2nsc(Nc3ccc4[nH]ncc4c3Cl)n2)c1)c1cncs1 [Compound A-16]
> 30	> 30	> 10	–	–	–	–	Cc1coc(-c2cncc(-c3nsc(Nc4ccc5[nH]ncc5c4Cl)n3)c2)n1 [IV-97]
< 1	< 1	> 10	–	–	–	–	CC(=O)Nc1cc(-c2nsc(Nc3ccc4[nH]ncc4c3Cl)n2)cn(C)c1=O [IV-45]
–	–	–	< 1	< 1	< 1	–	Cc1nn(C)cc1C(=O)Nc1cccc(-c2nsc(Nc3ccc4[nH]ncc4c3Cl)n2)c1 [Compound A-15]
–	–	–	< 1	< 1	< 1	–	Cc1cc(C(=O)Nc2cccc(-c3nsc(Nc4ccc5[nH]ncc5c4Cl)n3)c2)n(C)n1 [Compound A-12]
